Measured values reported in US20070111889A1, “6-(Aminocarbonyl-phenyl)triazolopyrimidines, methods for the production thereof, use thereof for controlling harmful fungi, and substances containing the same” (BASF Aktiengesellschaft, priority 2003, published 2007).

How the values were obtained:
Plasmopara viticola = test: Activity against Peronospora of vines caused by Plasmopara viticola (protective spray, potted vines); assay type: in vivo; conditions: 250 ppm; vines cultivar Riesling; inoculated the day after spraying; assessed visually; untreated plants 90% infected
Procedure: The active compounds were prepared as a stock solution with 0.25% by weight of active compound in acetone or DMSO. 1% by weight of the emulsifier Uniperol® EL (wetting agent having emulsifying and dispersing action based on ethoxylated alkylphenols) was added to this solution, and the mixture was diluted with water to the desired concentration.
Leaves of potted vines of the cultivar “Riesling” were sprayed to runoff point with an aqueous suspension having the concentration of active compounds stated below. The next day, the undersides of the leaves were inoculated with an aqueous zoospore suspension of Plasmopara viticola. The vines were then initially placed in a water-vapor-saturated chamber at 24° C. for 48 hours and then in a greenhouse at temperatures of between 20 and 30° C. for 5 days. After this time, the plants were again placed in a moist chamber for 16 hours to promote sporangiophore eruption. The extent of the development of the infection on the undersides of the leaves was then determined visually.

Pyrenophora teres = test: Activity against net blotch of barley caused by Pyrenophora teres (protective spray, barley seedlings); assay type: in vivo, Pyrenophora [syn. Drechslera] teres; conditions: 63 ppm; barley cultivar Hanna; inoculated 24 h after spraying; assessed visually after 6 days; untreated plants 90% infected
Procedure: The active compounds were prepared as a stock solution with 0.25% by weight of active compound in acetone or DMSO. 1% by weight of the emulsifier Uniperol® EL (wetting agent having emulsifying and dispersing action based on ethoxylated alkylphenols) was added to this solution, and the mixture was diluted with water to the desired concentration. Leaves of pot-grown barley seedlings of the cultivar “Hanna” were sprayed to runoff point with an aqueous suspensiori having the concentration of active compound stated below. 24 hours after the spray coating had dried on, the test plants were inoculated with an aqueous spore suspension of Pyrenophora [syn. Drechslera] teres, the causative agent of net blotch. The test plants were subsequently placed in a greenhouse at temperatures of between 20 and 24° C. and at a relative atmospheric humidity of 95 to 100%. After 6 days, the extent of the development of the disease was determined visually in % of infection of the total leaf area.

CC1CCN(c2c(-c3c(F)cc(C(N)=O)cc3F)c(Cl)nc3ncnn23)CC1 [I-1, 5-chloro-6-(2,6-difluoro-4-aminocarbonylphenyl)-7-(4-methylpiperidin-1-yl)-[1,2,4]-triazolo[1,5-a]pyrimidine]
infection on the undersides of the leaves (Plasmopara viticola): no infection | infection (% of infection of the total leaf area) (Pyrenophora teres): about 3%
